# Values of other authors as cited in patent publication US20260151310A1, “COSMETIC FOR HAIR GROWTH, COSMETIC RAW MATERIAL AND COSMETIC, AND METHOD FOR PRODUCING THE SAME” (Teika Pharmaceutical Co., Ltd., priority 2021, published 2026).
# Test system: hair density and hair thickness
# Conditions: compared with positive control minoxidil; Non Patent Literature 1
structure (smiles),measurement,value
[O-][n+]1ccccc1[S-].[O-][n+]1ccccc1[S-].[Zn+2] [pyrithione zinc],Effect on hair density and hair thickness,less than half the effect of a positive control minoxidil
